Experimental data taken from US11203610B2, “2′3′ cyclic dinucleotides with phosphonate bond activating the sting adaptor protein” (INSTITUTE OF ORGANIC CHEMISTRY AND BIOCHEMISTRY ASCR, V.V.I., priority 2017, dated 2021).

Key:
[1] = target: T1, AQ STING (G230A-R293Q) (Homo sapiens, UniProt Q86WV6, G230A/H232R/R293Q); experiment: Differential Scanning Fluorimetry with AQ STING; type: binding; conditions: thermal shift vs STING apoprotein; 150 μM CDN; 0.1 mg/ml truncated human AQ STING; SYPRO Orange; read-out: DSF ΔTm (° C.) AQ STING
T1 construct: truncated human WT STING or AQ STING (amino acid residues 140-343); 8xHis (N, cleaved yes); SUMO (N, cleaved yes); made in house; host or cells: E. coli Rosetta-gami B (DE3)
Procedure: (§1) WT STING and AQ STING Proteins
(§2) Purified PCR products were cleaved with restriction enzymes BamHI (cat. #R0136S, NEB, Ipswich, USA) and NotI (cat. #R0189S, NEB, Ipswich, USA) and cloned into the pSUMO vector linearized with the identical enzymes.
(§3) The resin was poured into a chromatography column, washed with 50 ml buffer A (50 mmol·l^−1 TrisCl (pH 8.0), 800 mmol·l^−1 NaCl, 3 mmol·l^−1 β-mercaptol; 10% glycerol; 20 mmol·l^−1 imidazole) and 8-His-SUMO tagged STING proteins were eluted with 15 ml buffer A containing 300 mmol·l^−1 imidazole. […] Proteins were concentrated with Amicon® Ultra-15 10 K device (cat. #UFC901008, Merck Millipore, Billerica, USA) and flash frozen in liquid N2.
(§4) Differential Scanning Fluorimetry with WT STING and AQ STING
(§5) 20 μL solutions of the reaction mixtures were pipetted in triplicates into 96 well optical reaction plates and thermal denaturation of samples were performed on real time PCR cycler (LightCycler® 480 Instrument II—Roche, Basel, Switzerland). The first derivative of the thermal denaturation curves was performed to calculate denaturing temperatures of STING—CDN complexes and STING apoproteins. The thermal shift for each CDN was calculated by subtracting the average denaturing temperature of STING apoprotein from the average denaturing temperature of STING CDN complex.

[2] = target: T2, WT STING (Homo sapiens, UniProt Q86WV6, H232R); experiment: Digitonin assay using 293T wtSTING-FL reporter cells; type: cell-based; conditions: 293T wtSTING-FL cells; 30 minutes in Digitonin buffer, then 5 hours; ISRE firefly luciferase reporter; 8-point dose-response curve; read-out: Digitonin assay EC50 (μmol · l^−1) WT STING
From the text: ISRE Reporter Plasmid (pGL64.27-4xISRE)
Two complementary oligonucleotides of the sequence […] […] […] […] […] The oligonucleotides were mixed in equal molar amounts, hybridized, and cleaved by restriction endonucleases HindIII (cat. #. R0104S, NEB, Ipswich, USA) and BglII (cat. #R0144S, NEB, Ipswich, USA). Ultimately, they were ligated into plasmid pGL4.27 (cat. #E6651, Promega, Madison, USA) linearized with the same enzymes. As result the sequence with four ISRE sites was placed upstream of the minimum promoter of firefly luciferase reporter gene.
After 5 minutes incubation at room temperature (RT), 250 μL of the mixture was added dropwise to the cells in one well. Cells were incubated 36 hours at 37° C. with 5% CO2, and then detached with 0.05% Trypsin and 0.22 g/L EDTA (both cat. #L0941, Biowest, Riverside, USA).
Transfected cells were seeded onto poly-D-lysine coated six well plates at density 50,000 cells per 1 cm^2 in DMEM medium with high glucose containing 10% heat inactivated FBS, 30 g/mL blasticidin (cat. #ant-bl-05, InvivoGen, San Diego, USA), 0.06 mg/ml Penicillin G and 0.1 mg/ml Streptomycin Sulfate (both cat. #. L0018, Biowest, Riverside, USA). The medium was replenished every 3-4 days until visible colonies of cells resistant to blasticidin were formed.
Blasticidin resistant cells stably expressing WT STING were further transfected with […] plasmid following the same procedure as described above. […] Homogeneous culture of stably double transfected cells was prepared by limiting dilution of cells in 96 well plates and wells with cells were selected that originated from a single cell.
The medium was removed next day and three fold serial dilutions of compounds in Digitonin buffer containing 50 mmol·l^−1 HEPES (cat. #H3375, Sigma Aldrich, Czech Republic) pH 7.0, 100 mmol·l^−1 KCl, 3 mmol·l^−1 MgCl2, 0.1 mmol·l^−1 DTT (cat. #D0632, Sigma Aldrich, Czech Republic), 85 mmol·l^−1 Sucrose (cat. #S7903, Sigma Aldrich, Czech Republic), 0.2% BSA (cat. #A2153, Sigma Aldrich, Czech Republic), 1 mmol·l^−1 ATP (cat. #A1852, Sigma Aldrich, Czech Republic), 0.1 mmol·l^−1 GTP (cat. #G8877, Sigma Aldrich, Czech Republic), and 10 μg/mL Digitonin A (cat. #D141, Sigma Aldrich, Czech Republic) were added to the cells. The buffer was removed after 30 minutes incubation at 37° C. with 5% CO2, the cells were washed once with 100 μl of cultivation medium, and 100 μl of medium was added to each well. The plates with cells were incubated for 5 hours at 37° C. with 5% CO2, 50 μl of the medium was removed and 30 μl of ONE-Glo™ Luciferase Assay System reagent (cat. #E6120, Promega, Madison, USA) was added to each well. Luminescence was read on Synergy H1 (Biotek, Winooski, USA).
Target sequence in this assay (Q86WV6 whole entry H232R): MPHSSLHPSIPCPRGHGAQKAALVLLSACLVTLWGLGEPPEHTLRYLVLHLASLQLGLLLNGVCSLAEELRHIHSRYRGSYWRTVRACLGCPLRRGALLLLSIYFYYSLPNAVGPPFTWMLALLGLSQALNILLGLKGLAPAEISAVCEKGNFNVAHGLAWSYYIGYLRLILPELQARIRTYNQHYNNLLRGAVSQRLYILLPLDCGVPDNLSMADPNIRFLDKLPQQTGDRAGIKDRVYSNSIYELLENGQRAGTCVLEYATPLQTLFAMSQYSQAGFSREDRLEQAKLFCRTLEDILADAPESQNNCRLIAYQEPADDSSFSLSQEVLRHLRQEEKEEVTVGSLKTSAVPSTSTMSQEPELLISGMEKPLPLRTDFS

[3] = target: T2, WT STING; experiment: Differential Scanning Fluorimetry with WT STING; type: binding; parameters: truncated human WT STING or AQ STING (amino acid residues 140-343); 8xHis (N, cleaved yes); SUMO (N, cleaved yes); made in house; host or cells: E. coli Rosetta-gami B (DE3); conditions: thermal shift vs STING apoprotein; 150 μM CDN; 0.1 mg/ml truncated human WT STING; SYPRO Orange; read-out: DSF ΔTm (° C.) WT STING
Procedure: as §1, §2, §3, §4, §5
Target sequence in this assay (Q86WV6 140-343 H232R): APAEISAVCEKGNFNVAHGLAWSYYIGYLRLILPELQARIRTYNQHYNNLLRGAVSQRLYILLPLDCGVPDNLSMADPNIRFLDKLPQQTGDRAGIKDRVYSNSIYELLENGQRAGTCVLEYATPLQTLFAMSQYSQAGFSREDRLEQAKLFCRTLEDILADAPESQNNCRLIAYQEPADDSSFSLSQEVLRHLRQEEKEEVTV

T1 sequence (Q86WV6 140-343 G230A/H232R/R293Q): as the sequence (Q86WV6 140-343 H232R) above, with G91A, R154Q counted along it

SMILES	ΔTm at 150 µM [1] [°C]	EC50 [2] [nM]	ΔTm at 150 µM [3] [°C]
Nc1nc2c(ncn2[C@@H]2O[C@@H]3COP(=O)(S)O[C@@H]4[C@@H](OCP(=O)(O)O[C@@H]2[C@@H]3O)O[C@@H](n2cnc3c(N)ncnc32)[C@@H]4O)c(=O)[nH]1 (stereo partly drawn) [Compound 39, (1R,6R,8R,9R,10S,15R,17R,18R)-17-(2-amino-6-oxo-6,9-dihydro-1H-purin-9-yl)-8-(6-amino-9H-purin-9-yl)-3,9,18-trihydroxy-12-sulfanyl-2,5,7,11,13,16-hexaoxa-3λ^5,12λ^5-diphosphatricyclo[13.2.1.0^6,10]octadecane-3,12-dione]	17.2	80	11
Cc1cn([C@@H]2O[C@@H]3COP(=O)(O)O[C@@H]4[C@@H](OCP(=O)(O)O[C@@H]2[C@@H]3O)O[C@@H](n2cnc3c(N)ncnc32)[C@@H]4O)c2nc(N)[nH]c(=O)c12 [Compound 42, (1R,6R,8R,9R,10S,15R,17R,18R)-17-{2-amino-5-methyl-4-oxo-3H,4H,7H-pyrrolo[2,3-d]pyrimidin-7-yl}-8-(6-amino-9H-purin-9-yl)-3,9,12,18-tetrahydroxy-2,5,7,11,13,16-hexaoxa-3λ^5,12λ^5-diphosphatricyclo[13.2.1.0^6,10]octadecane-3,12-dione]	2.1	45400	0.1
Nc1nc2c(ncn2[C@@H]2O[C@@H]3OCP(=O)(O)O[C@H]4[C@@H](F)[C@H](n5cnc6c(N)ncnc65)O[C@@H]4COP(=O)(O)O[C@@H]2[C@@H]3O)c(=O)[nH]1 [Compound 46, (1R,6R,8R,9R,10R,15R,17R,18S)-17-(2-amino-6-oxo-6,9-dihydro-1H-purin-9-yl)-8-(6-amino-9H-purin-9-yl)-9-fluoro-3,12,18-trihydroxy-2,4,7,11,14,16-hexaoxa-3λ^5,12λ^5-diphosphatricyclo[13.2.1.0^6,10]octadecane-3,12-dione]	26.2	10	18.7
Nc1ncnc2c1ncn2[C@@H]1O[C@@H]2OCP(=O)(O)O[C@@H]3[C@H](O)[C@@H](OCP(=O)(O)O[C@H]2[C@H]1O)O[C@H]3n1cnc2c(N)ncnc21 [Compound 30, (1R,6R,8R,9R,10S,15R,17R,18S)-8,17-bis(6-amino-9H-purin-9-yl)-3,9,12,18-tetrahydroxy-2,5,7,11,14,16-hexaoxa-3λ^5,12λ^5-diphosphatricyclo[13.2.1.0^6,^10]octadecane-3,12-dione]	6.4	6700	0.8
Nc1ncnc2c1ncn2[C@@H]1O[C@@H]2COCP(=O)(O)O[C@@H]3[C@H](O)[C@@H](COP(=O)(O)O[C@H]2[C@H]1O)O[C@H]3n1cnc2c(N)ncnc21 [Compound 32, (1R,6S,7R,8R,10R,16R,17R,19R)-8,17-bis(6-amino-9H-purin-9-yl)-4,7,14,19-tetrahydroxy-3,5,9,12,15,18-hexaoxa-4λ^5,14λ^5-diphosphatricyclo[14.2.1.0^6,^10]nonadecane-4,14-dione]	5.3	8000	0.5
C#Cc1cn([C@@H]2O[C@@H]3COP(=O)(O)O[C@@H]4[C@H](O)[C@@H](OCP(=O)(O)O[C@H]3[C@H]2O)O[C@H]4n2cnc3c(=O)[nH]c(N)nc32)c2ncnc(N)c12 [Compound 53, (1R,6R,8R,9R,10S,15R,17R,18S)-8-{4-amino-5-ethynyl-7H-pyrrolo[2,3-d]pyrimidin-7-yl}-17-(2-amino-6-oxo-6,9-dihydro-1H-purin-9-yl)-3,9,12,18-tetrahydroxy-2,4,7,11,14,16-hexaoxa-3λ^5,12λ^5-diphosphatricyclo[13.2.1.0^6,10]octadecane-3,12-dione]	12.9	40	6.6
Nc1nc2c(ncn2[C@@H]2O[C@@H]3OCP(=O)(O)OC4C[C@H](n5cnc6c(N)nc(Cl)nc65)O[C@@H]4COP(=O)(O)OC2C3O)c(=O)[nH]1 (stereo partly drawn) [Compound 56, (1R,6R,8R,105,15R,17R,185)-8-(6-amino-2-chloro-9H-purin-9-yl)-17-(2-amino-6-oxo-6,9-dihydro-1H-purin-9-yl)-3,12,18-trihydroxy-2,4,7,11,14,16-hexaoxa-3λ^5,12λ^5-diphosphatricyclo[13.2.1.0^6,10]octadecane-3,12-dione]	16.5	50	9.5
NC(=O)c1ncn([C@@H]2O[C@@H]3COP(=O)(O)O[C@@H]4[C@H](O)[C@@H](OCP(=O)(O)O[C@H]3[C@H]2O)O[C@H]4n2cnc3c(=O)[nH]c(N)nc32)c1N [Compound 58, 5-amino-1-[(1R,6R,8R,9R,10S,15R,17R,18S)-17-(2-amino-6-oxo-6,9-dihydro-1H-purin-9-yl)-3,9,12,18-tetrahydroxy-3,12-dioxo-2,4,7,11,14,16-hexaoxa-3λ^5,12λ^5-diphosphatricyclo[13.2.1.0^6,10]octadecan-8-yl]-1H-imidazole-4-carboxamide]	11.9	120	8.3
Nc1nc2c(ncn2[C@@H]2O[C@@H]3OCP(=O)(O)O[C@H]4[C@@H](F)[C@H](n5cnc6c(N)nc(F)nc65)O[C@@H]4COP(=O)(O)O[C@@H]2[C@@H]3O)c(=O)[nH]1 [Compound 54, (1R,6R,8R,9R,10R,15R,17R,18S)-8-(6-amino-2-fluoro-9H-purin-9-yl)-17-(2-amino-6-oxo-6,9-dihydro-1H-purin-9-yl)-9-fluoro-3,12,18-trihydroxy-2,4,7,11,14,16-hexaoxa-3λ^5,12λ^5-diphosphatricyclo[13.2.1.0^6,10]octadecane-3,12-dione]	19.9	12	13
Nc1nc2c(ncn2[C@@H]2O[C@@H]3COP(=O)(O)O[C@@H]4[C@@H](OCP(=O)(O)O[C@@H]2C3)O[C@@H](n2cnc3c(N)ncnc32)[C@@H]4O)c(=O)[nH]1 [Compound 38, (1R,6R,8R,9R,10S,15S,17R)-17-(2-amino-6-oxo-6,9-dihydro-1H-purin-9-yl)-8-(6-amino-9H-purin-9-yl)-3,9,12-trihydroxy-2,5,7,11,13,16-hexaoxa-3λ^5,12λ^5-diphosphatricyclo[13.2.1.0^6,10]octadecane-3,12-dione]	16.2	50	8.2
